From patent US4668680A, “5-amino-6,8-difluoroquinolones as antibacterial agents” (Warner-Lambert Company, priority 1985, dated 1987) come the findings set out here.

Common to all, as to test: in vitro antibacterial activity, microtitration dilution method
What all share (format): cell-based

One assay deals with Escherichia coli Vogel. The following applies: read-out: Minimal Inhibitory Concentration MIC. The text has this: (§1) The compounds of the invention display antibacterial activity as shown in the following table when tested by the microtitration dilution method as described in Heifetz, et al, Antimicr. Agents & Chemoth., 6, 124 (1974), which is incorporated herein by reference. […]

In assay [1] the test system is Klebsiella pneumoniae MGH-2.
Excerpt: as §1

In a further assay the test system is Proteus rettgeri M 1771. The following applies: Providencia rettgeri.
Excerpt: as §1

Assay [2] has as its system Pseudomonas aeruginosa UI-18.
Excerpt: as §1

Assay [3] relates to Staphylococcus aureus H 228.
Excerpt: as §1

The test system of assay [4] is Staphylococcus aureus UC-76.
Excerpt: as §1

The test system of assay [5] is Streptococcus faecalis MGH-2. Particulars: Enterococcus faecalis.
Excerpt: as §1

Assay [6] concerns Streptococcus pneumonia SV-1. The following applies: Streptococcus pneumoniae.
Excerpt: as §1

The test system of assay [7] is Streptococcus pyogenes C-203.
Excerpt: as §1

For assay [8], the system named is Enterobacter cloacae MA 2646. The following applies: MA2646, read-out: Minimal Inhibitory Concentration MIC.
Where [9] appears, read: MGH2, Klebsiella pneumoniae MGH-2, read-out: Minimal Inhibitory Concentration MIC.
Where [10] appears, read: M1771, Proteus rettgeri M 1771, read-out: Minimal Inhibitory Concentration MIC.
Where [11] appears, read: UI18, Pseudomonas aeruginosa UI-18, read-out: Minimal Inhibitory Concentration MIC.
The mark [12] stands for this setting: H228, Staphylococcus aureus H 228, read-out: Minimal Inhibitory Concentration MIC.
The mark [13] stands for this setting: UC76, Staphylococcus aureus UC-76, read-out: Minimal Inhibitory Concentration MIC.
Setting [14] is: MGH2, Streptococcus faecalis MGH-2, read-out: Minimal Inhibitory Concentration MIC.
[15] abbreviates: SV1, Streptococcus pneumonia SV-1, read-out: Minimal Inhibitory Concentration MIC.
Where [16] appears, read: C203, Streptococcus pyogenes C-203, read-out: Minimal Inhibitory Concentration MIC.

In brackets after ≈: the same amount, converted by molar mass. Like-named read-outs stand apart in the source and are kept apart here.

As for `O=C(O)c1cn(C2CC2)c2cc(N3CCNCC3)c(F)cc2c1=O` [Ciprofloxacin, 1-cyclopropyl-6-fluoro-1,4-dihydro-4-oxo-7-piperazinyl-3-quinoline-carboxylic acid, reference compound], the MIC was 0.05 µg/mL (≈ 0.151 µM) in the assay on Escherichia coli Vogel; 0.1 µg/mL (≈ 0.302 µM) in [1] (Klebsiella pneumoniae, MGH2, read-out: Minimal Inhibitory Concentration MIC); 0.1 µg/mL (≈ 0.302 µM) in the assay with Proteus rettgeri M 1771 (M1771, read-out: Minimal Inhibitory Concentration MIC); 0.4 µg/mL (≈ 1.21 µM) in assay [2] (Pseudomonas aeruginosa, UI18, read-out: Minimal Inhibitory Concentration MIC); 3.1 µg/mL (≈ 9.36 µM) in assay [3] (Staphylococcus aureus, H228, read-out: Minimal Inhibitory Concentration MIC); 0.2 µg/mL (≈ 0.604 µM) in [4] (Staphylococcus aureus, UC76, read-out: Minimal Inhibitory Concentration MIC). Besides, the MIC in assay [5] (MGH2, read-out: Minimal Inhibitory Concentration MIC) was 0.8 µg/mL (≈ 2.41 µM); in [6] (SV1, read-out: Minimal Inhibitory Concentration MIC), 1.6 µg/mL (≈ 4.83 µM); in [7] (Streptococcus pyogenes, C203, read-out: Minimal Inhibitory Concentration MIC), 0.8 µg/mL (≈ 2.41 µM).
Consider `Nc1c(F)c(N2CCNCC2)c(F)c2c1c(=O)c(C(=O)O)cn2C1CC1` [Ex. 1, 5-amino-1-cyclopropyl-6,8-difluoro-1,4-dihydro-4-oxo-7-(1-piperazinyl)-3-quinolinecarboxylic acid], for which the MIC in assay [8] came to 0.013 µg/mL (≈ 0.0357 µM); with Escherichia coli Vogel, 0.013 µg/mL (≈ 0.0357 µM); in assay [1] (setting [9]), 0.025 µg/mL (≈ 0.0686 µM); in the assay with Proteus rettgeri M 1771 (setting [10]), 0.05 µg/mL (≈ 0.137 µM); in [2] (setting [11]), 0.025 µg/mL (≈ 0.0686 µM); in [3] (setting [12]), 0.05 µg/mL (≈ 0.137 µM). Also, the MIC in [4] (setting [13]) was 0.013 µg/mL (≈ 0.0357 µM); in assay [5] (setting [14]), 0.05 µg/mL (≈ 0.137 µM); in assay [6] (setting [15]), 0.05 µg/mL (≈ 0.137 µM); in [7] (setting [16]) it was 0.2 µg/mL (≈ 0.549 µM).
On to `CN1CCN(c2c(F)c(N)c3c(=O)c(C(=O)O)cn(C4CC4)c3c2F)CC1` [Ex. 2, 5-Amino-1-cyclopropyl-6,8-difluoro-1,4-dihydro-7-(4-methyl-1-piperazinyl)-4-oxo-3-quinolinecarboxylic acid], for which the MIC in assay [8] came to 0.013 µg/mL (≈ 0.0344 µM); with Escherichia coli Vogel it was 0.013 µg/mL (≈ 0.0344 µM); in [1] (setting [9]) it was 0.013 µg/mL (≈ 0.0344 µM); in the assay with Proteus rettgeri M 1771 (setting [10]) it was 0.05 µg/mL (≈ 0.132 µM); in assay [2] (setting [11]), 0.1 µg/mL (≈ 0.264 µM); in assay [3] (setting [12]), 0.05 µg/mL (≈ 0.132 µM). The MIC was found to be 0.025 µg/mL (≈ 0.0661 µM) in [4] (setting [13]), 0.1 µg/mL (≈ 0.264 µM) in [5] (setting [14]), 0.2 µg/mL (≈ 0.529 µM) in [6] (setting [15]) and 0.4 µg/mL (≈ 1.06 µM) in assay [7] (setting [16]).
